Laboratory results taken from patent publication US7053245B2, “N-acylamino benzyl ether derivatives” (Hoffmann-La Roche Inc., priority 2002, dated 2006).
Counter-ions that a name gives are not always drawn.

What follows are molecules tested against T1, human MAO-B (Homo sapiens, UniProt P27338) (assay: MAO-B enzymatic activity, spectrophotometric Amplex Red/peroxidase assay on membranes of transfected EBNA cells). Settings: membranes preincubated with compound 30 min at 37° C., pH 7.4; substrate tyramine; nine inhibitor concentrations in duplicate.
T1 construct: expressed in transfected cells; host or cells: EBNA cells (transient transfection); cell membranes used
T1 sequence (P27338 1-520): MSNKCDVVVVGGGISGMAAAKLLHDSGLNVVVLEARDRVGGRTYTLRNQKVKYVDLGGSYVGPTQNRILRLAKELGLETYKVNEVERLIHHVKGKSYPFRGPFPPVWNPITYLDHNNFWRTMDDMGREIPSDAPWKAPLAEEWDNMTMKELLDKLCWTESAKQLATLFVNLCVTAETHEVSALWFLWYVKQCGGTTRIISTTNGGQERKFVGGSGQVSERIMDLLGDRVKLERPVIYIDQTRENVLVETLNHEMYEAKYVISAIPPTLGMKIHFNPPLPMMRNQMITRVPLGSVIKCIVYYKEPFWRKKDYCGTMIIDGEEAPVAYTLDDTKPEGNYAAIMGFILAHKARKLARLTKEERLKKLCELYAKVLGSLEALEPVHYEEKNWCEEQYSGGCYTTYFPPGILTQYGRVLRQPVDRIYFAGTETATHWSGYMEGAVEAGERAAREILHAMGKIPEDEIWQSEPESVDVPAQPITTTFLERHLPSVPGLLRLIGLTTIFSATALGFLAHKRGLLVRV
Type: biochemical
Method: The cDNA's encoding human MAO-A and MAO-B were transiently transfected into EBNA cells using the procedure described by E.-J. Schlaeger and K. Christensen (Transient Gene Expression in Mammalian Cells Grown in Serum-free Suspension Culture; Cytotechnology, 15: 1-13, 1998). After transfection, cells were homogenised by means of a Polytron homogenizer in 20 mM Tris HCl buffer, pH 8.0, containing 0.5 mM EGTA and 0.5 mM phenylmethanesulfonyl fluoride. Cell membranes were obtained by centrifugation at 45,000×g and, after two rinsing step with 20 mM Tris HCl buffer, pH 8.0, containing 0.5 mM EGTA, membranes were eventually re-suspended in the above buffer and aliquots stored at −80° C. until use.
MAO-A and MAO-B enzymatic activity was assayed in 96-well-plates using a spectrophometric assay adapted from the method described by M. Zhou and N. Panchuk-Voloshina (A One-Step Fluorometric Method for the Continuous Measurement of Monoamine Oxidase Activity, Analytical Biochemistry, 253: 169-174, 1997). Briefly, membrane aliquots were incubated in 0.1 M potassium phosphate buffer, pH 7.4, for 30 min at 37° C. with or without various concentrations of the compounds. After this period, the enzymatic reaction was started by the addition of the MAO substrate tyramine together with 1 U/ml horse-radish peroxidase (Roche Biochemicals) and 80 μM N-acetyl-3,7,-dihydroxyphenoxazine (Amplex Red, Molecular Probes). The samples were further incubated for 30 min at 37° C. in a final volume of 200 μl and absorbance was then determine at a wavelength of 570 nm using a SpectraMax plate reader (Molecular Devices). Background (non-specific) absorbance was determined in the presence of 10 μM clorgyline for MAO-A or 10 μM L-deprenyl for MAO-B.
IC50 values were determined from inhibition curves obtained using nine inhibitor concentrations in duplicate, by fitting data to a four parameter logistic equation using a computer program.
An IC50 of 11 nM was found for `COC(=O)CC(=O)Nc1ccc(OCc2cccc(F)c2)cc1` [Example 1, N-[4-(3-Fluoro-benzyloxy)-phenyl]-malonamic acid methyl ester] in this work. An IC50 of 7.9 nM was found for `NC(=O)C1(C(=O)Nc2ccc(OCc3cccc(F)c3)cc2)CC1` [Example 2, Cyclopropane-1,1-dicarboxylic acid amide [4-(3-fluoro-benzyloxy)-phenyl]-amide] in this work. An IC50 of 10.9 nM was found for `NC(=O)CC(=O)Nc1ccc(OCc2cccc(F)c2)cc1` [Example 3, N-[4-(3-Fluoro-benzyloxy)-phenyl]-malonamide] in this work. An IC50 of 13 nM was found for `CC(C(N)=O)C(=O)Nc1ccc(OCc2cccc(F)c2)cc1` (stereo not drawn) [Example 6, N-[4-(3-Fluoro-benzyloxy)-phenyl]-2-methyl-malonamide] in this work. An IC50 of 9.6 nM was found for `COC(=O)CC(=O)Nc1ccc(OCc2cccc(F)c2)c(F)c1` [Example 8, N-[3-Fluoro-4-(3-fluoro-benzyloxy)-phenyl]-malonamic acid methyl ester] in this work. An IC50 of 7.2 nM was found for `NC(=O)CC(=O)Nc1ccc(OCc2cccc(F)c2)c(F)c1` [Example 9, N-[3-Fluoro-4-(3-fluoro-benzyloxy)-phenyl]-malonamide] in this work. An IC50 of 11.2 nM was found for `COC(=O)CC(=O)Nc1ccc(OCc2ccc(F)cc2)cc1` [Example 10, N-[4-(4-Fluoro-benzyloxy)-phenyl]-malonamic acid methyl ester] in this work. An IC50 of 7.5 nM was found for `NC(=O)CC(=O)Nc1ccc(OCc2ccc(F)cc2)cc1` [Example 11, N-[4-(4-Fluoro-benzyloxy)-phenyl]-malonamide] in this work. An IC50 of 9 nM was found for `COC(=O)CC(=O)Nc1ccc(OCc2cccc(F)c2)cc1F` [Example 14, N-[2-Fluoro-4-(3-fluoro-benzyloxy)-phenyl]-malonamic acid methyl ester] in this work. An IC50 of 11 nM was found for `COC(=O)CC(=O)Nc1ccc(OCc2ccc(F)cc2F)cc1` [Example 25, N-[4-(2,4-Difluoro-benzyloxy)-phenyl]-malonamic acid methyl ester] in this work. An IC50 of 11 nM was found for `COC(=O)CC(=O)Nc1ccc(OCc2cc(F)c(F)cc2F)cc1` [Example 27, N-[4-(2,4,5-Trifluoro-benzyloxy)-phenyl]-malonamic acid methyl ester] in this work. An IC50 of 8 nM was found for `NC(=O)CC(=O)Nc1ccc(OCc2ccc(F)cc2F)cc1` [Example 28, N-[4-(2,4-Difluoro-benzyloxy)-phenyl]-malonamide] in this work. An IC50 of 8 nM was found for `NC(=O)CC(=O)Nc1ccc(OCc2cc(F)c(F)cc2F)cc1` [Example 29, N-[4-(2,4,5-Trifluoro-benzyloxy)-phenyl]-malonamide] in this work. An IC50 of 18 nM was found for `NC(=O)CC(=O)Nc1ccc(OCc2ccc(Cl)cc2)cc1` [Example 34, N-[4-(4-Chloro-benzyloxy)-phenyl]-malonamide] in this work. An IC50 of 16 nM was found for `NC(=O)CC(=O)Nc1ccc(OCc2cccc(F)c2)cc1O` [Example 38, N-[4-(3-Fluoro-benzyloxy)-2-hydroxy-phenyl]-malonamide] in this work. An IC50 of 5 nM was found for `COC(=O)CC(=O)Nc1ccc(OCc2ccc(F)cc2)cc1F` [Example 39, N-[2-Fluoro-4-(4-fluoro-benzyloxy)-phenyl]-malonamic acid methyl ester] in this work. An IC50 of 15 nM was found for `NC(=O)CC(=O)Nc1ccc(OCc2ccc(F)cc2)cc1F` [Example 40, N-[2-Fluoro-4-(4-fluoro-benzyloxy)-phenyl]-malonamide] in this work. An IC50 of 13 nM was found for `COC(=O)CC(=O)Nc1ccc(OCc2cc(C(F)(F)F)cc(C(F)(F)F)c2)cc1F` [Example 41, N-[4-(3,5-Bis-trifluoromethyl-benzyloxy)-2-fluoro-phenyl]-malonamic acid methyl ester] in this work. An IC50 of 9 nM was found for `NC(=O)CC(=O)Nc1ccc(OCc2ccc(C(F)(F)F)cc2)cc1F` [Example 44, N-[2-Fluoro-4-(4-trifluoromethyl-benzyloxy)-phenyl]-malonamide] in this work. An IC50 of 14 nM was found for `COC(=O)CC(=O)Nc1ccc(OCc2cccc(F)c2)c(C)c1` [Example 47, N-[4-(3-Fluoro-benzyloxy)-3-methyl-phenyl]-malonamic acid methyl ester] in this work. An IC50 of 19 nM was found for `Cc1cc(NC(=O)CC(N)=O)ccc1OCc1cccc(F)c1` [Example 48, N-[4-(3-Fluoro-benzyloxy)-3-methyl-phenyl]-malonamide] in this work. An IC50 of 10 nM was found for `COC(=O)CC(=O)Nc1ccc(OCc2cccc(F)c2)c(Cl)c1` [Example 49, N-[3-Chloro-4-(3-fluoro-benzyloxy)-phenyl]-malonamic acid methyl ester] in this work. An IC50 of 6 nM was found for `NC(=O)CC(=O)Nc1ccc(OCc2cccc(F)c2)c(Cl)c1` [Example 50, N-[3-Chloro-4-(3-fluoro-benzyloxy)-phenyl]-malonamide] in this work. An IC50 of 10 nM was found for `COC(=O)CC(=O)Nc1ccc(C=Cc2ccc(F)cc2)cc1` [Example 56, N-{4-[2-(4-Fluoro-phenyl)-vinyl]-phenyl}-malonamic acid methyl ester] in this work. An IC50 of 18 nM was found for `NC(=O)CC(=O)Nc1ccc(C=Cc2ccc(F)cc2)cc1` [Example 57, N-{4-[2-(4-Fluoro-phenyl)-vinyl]-phenyl}-malonamide] in this work. An IC50 of 16 nM was found for `NCC(=O)Nc1ccc(OCc2ccc(F)cc2)cc1F` [Example 66, 2-Amino-N-[2-fluoro-4-(4-fluoro-benzyloxy)-phenyl]-acetamide (1:1) hydrochloride] in this work. An IC50 of 11 nM was found for `CC(=O)NCC(=O)Nc1ccc(OCc2ccc(F)cc2)cc1F` [Example 70, 2-Acetylamino-N-[2-fluoro-4-(4-fluoro-benzyloxy)-phenyl]-acetamide] in this work. An IC50 of 7 nM was found for `O=CNCC(=O)Nc1ccc(OCc2ccc(F)cc2)cc1F` [Example 72, N-[2-Fluoro-4-(4-fluoro-benzyloxy)-phenyl]-2-formylamino-acetamide] in this work. An IC50 of 13 nM was found for `CC(=O)NCC(=O)Nc1ccc(OCc2cccc(F)c2)cc1F` [Example 75, 2-Acetylamino-N-[2-fluoro-4-(3-fluoro-benzyloxy)-phenyl]-acetamide] in this work. An IC50 of 16 nM was found for `O=CNCC(=O)Nc1ccc(OCc2cccc(F)c2)cc1F` [Example 76, N-[2-Fluoro-4-(3-fluoro-benzyloxy)-phenyl]-2-formylamino-acetamide] in this work.
